Results published in US6518243B1, “Desleucyl glycopeptide antibiotics and methods of making same” (Trustees of Princeton University, priority 1999, dated 2003).

Tests used:
[1] = tested on: S. aureus (ATCC 29213); test: Zone of inhibition screen, 96 well agar array format; format: cell-based; set-up: scale not given here
Summary of the method: (§1)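 Each compound was tested for antibacterial activity against a shared bacterial panel, with screening carried out on agar in a 96-well array.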

[2] = tested on: S. epidermidis (ATCC 12228); test: as above; format: cell-based; set-up: scale not given here
Summary of the method: as §1

[3] = zone of inhibition relative to 1 mg/ml stock solution of p-chlorobiphenylvancomycin
[4] = zone of inhibition relative to 1 mg/ml p-chlorobiphenylvancomycin

Row | Structure (SMILES) | zone score, S. aureus ATCC 29213 [1, 3] | zone score, S. epidermidis ATCC 12228 [2, 3] | zone score, S. aureus ATCC 29213 [1, 4] | zone score, S. epidermidis ATCC 12228 [2, 4]
1 | CC1OC(OC2C(Oc3c4cc5cc3Oc3ccc(cc3Cl)C(O)C3NC(=O)C(NC(=O)C5NC(=O)C(CC(N)=O)NC(=O)C(NC(=O)c5cc(=O)[nH]c(=O)[nH]5)C(O)c5ccc(c(Cl)c5)O4)c4ccc(O)c(c4)-c4c(O)cc(O)cc4C(C(=O)O)NC3=O)OC(CO)C(O)C2O)CC(C)(NCc2ccc(-c3ccc(Cl)cc3)cc2)C1O (stereo not drawn) [Compound 198] | 2 | 2 |  | 
2 | CC1OC(OC2C(Oc3c4cc5cc3Oc3ccc(cc3Cl)C(O)C3NC(=O)C(NC(=O)C5NC(=O)C(CC(N)=O)NC(=O)C(NC(=O)C5CCC(=O)O5)C(O)c5ccc(c(Cl)c5)O4)c4ccc(O)c(c4)-c4c(O)cc(O)cc4C(C(=O)O)NC3=O)OC(CO)C(O)C2O)CC(C)(NCc2ccc(-c3ccc(Cl)cc3)cc2)C1O (stereo not drawn) [Compound 227] |  |  | 2 | 2
3 | CC1OC(OC2C(Oc3c4cc5cc3Oc3ccc(cc3Cl)C(O)C3NC(=O)C(NC(=O)C5NC(=O)C(CC(N)=O)NC(=O)C(NC(=O)c5ccccc5F)C(O)c5ccc(c(Cl)c5)O4)c4ccc(O)c(c4)-c4c(O)cc(O)cc4C(C(=O)O)NC3=O)OC(CO)C(O)C2O)CC(C)(NCc2ccc(-c3ccc(Cl)cc3)cc2)C1O (stereo not drawn) [Compound 238] |  |  | 2 | 2
4 | CC1OC(OC2C(Oc3c4cc5cc3Oc3ccc(cc3Cl)C(O)C3NC(=O)C(NC(=O)C5NC(=O)C(CC(N)=O)NC(=O)C(NC(=O)c5ccco5)C(O)c5ccc(c(Cl)c5)O4)c4ccc(O)c(c4)-c4c(O)cc(O)cc4C(C(=O)O)NC3=O)OC(CO)C(O)C2O)CC(C)(NCc2ccc(-c3ccc(Cl)cc3)cc2)C1O (stereo not drawn) [Compound 240] |  |  | 2 | 2
5 | CC1OC(OC2C(Oc3c4cc5cc3Oc3ccc(cc3Cl)C(O)C3NC(=O)C(NC(=O)C5NC(=O)C(CC(N)=O)NC(=O)C(NC(=O)C=Cc5ccco5)C(O)c5ccc(c(Cl)c5)O4)c4ccc(O)c(c4)-c4c(O)cc(O)cc4C(C(=O)O)NC3=O)OC(CO)C(O)C2O)CC(C)(NCc2ccc(-c3ccc(Cl)cc3)cc2)C1O (stereo not drawn) [Compound 244] |  |  | 2 | 2
6 | CC1OC(OC2C(Oc3c4cc5cc3Oc3ccc(cc3Cl)C(O)C3NC(=O)C(NC(=O)C5NC(=O)C(CC(N)=O)NC(=O)C(NC(=O)c5ccc(O)cc5)C(O)c5ccc(c(Cl)c5)O4)c4ccc(O)c(c4)-c4c(O)cc(O)cc4C(C(=O)O)NC3=O)OC(CO)C(O)C2O)CC(C)(NCc2ccc(-c3ccc(Cl)cc3)cc2)C1O (stereo not drawn) [Compound 271] |  |  | 2 | 2
7 | CC1OC(OC2C(Oc3c4cc5cc3Oc3ccc(cc3Cl)C(O)C3NC(=O)C(NC(=O)C5NC(=O)C(CC(N)=O)NC(=O)C(NC(=O)c5nccnc5C(N)=O)C(O)c5ccc(c(Cl)c5)O4)c4ccc(O)c(c4)-c4c(O)cc(O)cc4C(C(=O)O)NC3=O)OC(CO)C(O)C2O)CC(C)(NCc2ccc(-c3ccc(Cl)cc3)cc2)C1O (stereo not drawn) [Compound 283] |  |  | 2 | 2
8 | CC1OC(OC2C(Oc3c4cc5cc3Oc3ccc(cc3Cl)C(O)C3NC(=O)C(NC(=O)C5NC(=O)C(CC(N)=O)NC(=O)C(NC(=O)C=NNC(N)=O)C(O)c5ccc(c(Cl)c5)O4)c4ccc(O)c(c4)-c4c(O)cc(O)cc4C(C(=O)O)NC3=O)OC(CO)C(O)C2O)CC(C)(NCc2ccc(-c3ccc(Cl)cc3)cc2)C1O (stereo not drawn) [Compound 289] |  |  | 2 | 2
9 | CC1OC(OC2C(Oc3c4cc5cc3Oc3ccc(cc3Cl)C(O)C3NC(=O)C(NC(=O)C5NC(=O)C(CC(N)=O)NC(=O)C(NC(=O)C5CCCO5)C(O)c5ccc(c(Cl)c5)O4)c4ccc(O)c(c4)-c4c(O)cc(O)cc4C(C(=O)O)NC3=O)OC(CO)C(O)C2O)CC(C)(NCc2ccc(-c3ccc(Cl)cc3)cc2)C1O (stereo not drawn) [Compound 316] |  |  | 2 | 2
